Test results taken from paper PMC3909880 (Nature communications, 2013).
Converted amounts (≈) assume the structure as drawn.

Columns and labels:
M. tuberculosis H37Rv [1] = assay: microbe, parasite or virus in culture; format: cell-based, Mycobacterium tuberculosis; details: for MIC: Mycobacterium tuberculosis, H37RV, read-out: MIC for H37Rv; for MIC for H37Rv: M. tuberculosis H37Rv parental strain
[2] = test system: M. tuberculosis strains H37Rv, V4207, V2475, KZN494, TF274, R506; details: MDR strains V2475 and KZN494; cited from earlier work
M. tuberculosis H37Rv [3] = format: in vivo, Mycobacterium tuberculosis; details: 10 mg/kg oral gavage daily (5 days per week), BALB/c mice

| Compound | MIC (M. tuberculosis H37Rv [1]) | also measured |
| --- | --- | --- |
| NCC[C@H](O)C(=O)N[C@@H]1C[C@H](N)[C@@H](O[C@H]2O[C@H](CN)[C@@H](O)[C@H](O)[C@H]2O)[C@H](O)[C@H]1O[C@H]1O[C@H](CO)[C@@H](O)[C@H](N)[C@H]1O [Amikacin] | 1 µg/mL (≈ 1.71 µM) |  |
| CC[C@@H](CO)NCCN[C@@H](CC)CO [Ethambutol] | 1 µg/mL (≈ 4.89 µM) |  |
| NNC(=O)c1ccncc1 [Isoniazid] | 0.04 µg/mL (≈ 0.292 µM) | Susceptibility of the MDR strains [2]: resistant; Mean lung CFU counts (standard deviation), Day 7 (M. tuberculosis H37Rv [3]): 5.508 (0.124) log10 CFU/lung; Mean lung CFU counts (standard deviation), Day 14 (M. tuberculosis H37Rv [3]): 5.266 (0.089) log10 CFU/lung; Mean lung CFU counts (standard deviation), Day 28 (M. tuberculosis H37Rv [3]): 4.561 (0.088) log10 CFU/lung |
| NC[C@H]1O[C@H](O[C@H]2[C@H](O)[C@@H](O[C@H]3O[C@H](CO)[C@@H](O)[C@H](N)[C@H]3O)[C@H](N)C[C@@H]2N)[C@H](O)[C@@H](O)[C@@H]1O [Kanamycin] |  | MIC for H37Rv (M. tuberculosis H37Rv [1]): 2 µg/mL |
| C[C@H]1COc2c(N3CCN(C)CC3)c(F)cc3c(=O)c(C(=O)O)cn1c23 [Levofloxacin] | 0.25 µg/mL (≈ 0.692 µM) |  |
| COc1c(N2C[C@@H]3CCCN[C@@H]3C2)c(F)cc2c(=O)c(C(=O)O)cn(C3CC3)c12 [Moxifloxacin] | 0.0625 to 0.125 µg/mL (≈ 0.156 to 0.311 µM) |  |
| CO[C@H]1/C=C/O[C@@]2(C)Oc3c(C)c(O)c4c(O)c(c(/C=N/N5CCN(C)CC5)c(O)c4c3C2=O)NC(=O)/C(C)=C\C=C\[C@H](C)[C@H](O)[C@@H](C)[C@@H](O)[C@@H](C)[C@H](OC(C)=O)[C@@H]1C [Rifampin] | 0.125 µg/mL (≈ 0.152 µM) | Susceptibility of the MDR strains [2]: resistant |
| CC(C)=CCC/C(C)=C/CNCCNC1C2CC3CC(C2)CC1C3 (centres unmarked) [SQ109] | 0.25 µg/mL (≈ 0.756 µM) |  |
| Capreomycin |  | MIC for H37Rv (M. tuberculosis H37Rv [1]): 1 µg/mL |
